Literature values, collected in PubChem BioAssay AID1259409 (Chemical Carcinogenesis Research Information System (CCRIS), 2018).

Tested on: rodent chemically induced tumor inhibition, incidence and multiplicity
Test: CCRIS tumor inhibitor studies
Settings: Route [Inhibitor]: ORAL, Species: RAT, Promoter: NONE USED

CC1=C(/C=C/C(C)=C/C=C/C(C)=C/C=C2C(=O)CC(C)(C)CC2=O)C(C)(C)CCC1
tumour outcome (control, treated, inhibition, significance) (Carcinogen: L-AZASERINE, 115-02-6, Dose [Inhibitor]: 1 MMOL/KG DIET DAILY FOR 365 D STARTING 1 WK AFTER COMPLETION OF CARCINOGEN TREATMENT (STUDY DURATION: 66 WK), Strain/Sex: WISTAR-LEWIS/FEMALE, Target Tissue: Type of Lesion: PANCREAS: ADENOMA, Dose [Carcinogen]: 10 MG/KG BW 1/WK FOR 15 WK): 50%, 33%, 34%, not significant | tumour outcome (control, treated, inhibition, significance) (Carcinogen: L-AZASERINE, 115-02-6, Dose [Inhibitor]: 1 MMOL/KG DIET DAILY FOR 365 D STARTING 1 WK AFTER COMPLETION OF CARCINOGEN TREATMENT (STUDY DURATION: 66 WK), Strain/Sex: WISTAR-LEWIS/FEMALE, Target Tissue: Type of Lesion: PANCREAS: CARCINOMA IN SITU, Dose [Carcinogen]: 10 MG/KG BW 1/WK FOR 15 WK): 8%, 21%, -163%, not calculated | tumour outcome (control, treated, inhibition, significance) (Carcinogen: L-AZASERINE, 115-02-6, Dose [Inhibitor]: 1 MMOL/KG DIET DAILY FOR 365 D STARTING 1 WK AFTER COMPLETION OF CARCINOGEN TREATMENT (STUDY DURATION: 66 WK), Strain/Sex: WISTAR-LEWIS/FEMALE, Target Tissue: Type of Lesion: PANCREAS: CARCINOMA, Dose [Carcinogen]: 10 MG/KG BW 1/WK FOR 15 WK): 13%, 4%, 69%, not significant | tumour outcome (control, treated, inhibition, significance) (Carcinogen: L-AZASERINE, 115-02-6, Dose [Inhibitor]: 1 MMOL/KG DIET DAILY FOR 365 D STARTING 1 WK AFTER COMPLETION OF CARCINOGEN TREATMENT (STUDY DURATION: 66 WK), Strain/Sex: WISTAR-LEWIS/FEMALE, Target Tissue: Type of Lesion: PANCREAS: NEOPLASM, Dose [Carcinogen]: 10 MG/KG BW 1/WK FOR 15 WK): 71%, 58%, 18%, not significant | tumour outcome (control, treated, inhibition, significance) (Carcinogen: L-AZASERINE, 115-02-6, Dose [Inhibitor]: 1 MMOL/KG DIET DAILY FOR 365 D STARTING 1 WK AFTER COMPLETION OF CARCINOGEN TREATMENT (STUDY DURATION: 66 WK), Strain/Sex: WISTAR-LEWIS/MALE, Target Tissue: Type of Lesion: PANCREAS: ADENOMA, Dose [Carcinogen]: 10 MG/KG BW 1/WK FOR 15 WK): 25%, 12%, 52%, not significant | tumour outcome (control, treated, inhibition, significance) (Carcinogen: L-AZASERINE, 115-02-6, Dose [Inhibitor]: 1 MMOL/KG DIET DAILY FOR 365 D STARTING 1 WK AFTER COMPLETION OF CARCINOGEN TREATMENT (STUDY DURATION: 66 WK), Strain/Sex: WISTAR-LEWIS/MALE, Target Tissue: Type of Lesion: PANCREAS: CARCINOMA IN SITU, Dose [Carcinogen]: 10 MG/KG BW 1/WK FOR 15 WK): 29%, 56%, -93%, not significant | tumour outcome (control, treated, inhibition, significance) (Carcinogen: L-AZASERINE, 115-02-6, Dose [Inhibitor]: 1 MMOL/KG DIET DAILY FOR 365 D STARTING 1 WK AFTER COMPLETION OF CARCINOGEN TREATMENT (STUDY DURATION: 66 WK), Strain/Sex: WISTAR-LEWIS/MALE, Target Tissue: Type of Lesion: PANCREAS: CARCINOMA, Dose [Carcinogen]: 10 MG/KG BW 1/WK FOR 15 WK): 46%, 16%, 65%, p<0.05 | tumour outcome (control, treated, inhibition, significance) (Carcinogen: L-AZASERINE, 115-02-6, Dose [Inhibitor]: 1 MMOL/KG DIET DAILY FOR 365 D STARTING 1 WK AFTER COMPLETION OF CARCINOGEN TREATMENT (STUDY DURATION: 66 WK), Strain/Sex: WISTAR-LEWIS/MALE, Target Tissue: Type of Lesion: PANCREAS: NEOPLASM, Dose [Carcinogen]: 10 MG/KG BW 1/WK FOR 15 WK): 100%, 84%, 16%, not significant | tumour outcome (control, treated, inhibition, significance) (Carcinogen: L-AZASERINE, 115-02-6, Dose [Inhibitor]: 2 MMOL/KG DIET DAILY FOR 330 D STARTING 1 WK AFTER COMPLETION OF CARCINOGEN TREATMENT (STUDY DURATION: 66 WK), Strain/Sex: WISTAR-LEWIS/FEMALE, Target Tissue: Type of Lesion: PANCREAS: ADENOMA, Dose [Carcinogen]: 10 MG/KG BW 1/WK FOR 15 WK): 50%, 33%, 34%, not significant | tumour outcome (control, treated, inhibition, significance) (Carcinogen: L-AZASERINE, 115-02-6, Dose [Inhibitor]: 2 MMOL/KG DIET DAILY FOR 330 D STARTING 1 WK AFTER COMPLETION OF CARCINOGEN TREATMENT (STUDY DURATION: 66 WK), Strain/Sex: WISTAR-LEWIS/FEMALE, Target Tissue: Type of Lesion: PANCREAS: CARCINOMA IN SITU, Dose [Carcinogen]: 10 MG/KG BW 1/WK FOR 15 WK): 8%, 17%, -113%, not calculated | tumour outcome (control, treated, inhibition, significance) (Carcinogen: L-AZASERINE, 115-02-6, Dose [Inhibitor]: 2 MMOL/KG DIET DAILY FOR 330 D STARTING 1 WK AFTER COMPLETION OF CARCINOGEN TREATMENT (STUDY DURATION: 66 WK), Strain/Sex: WISTAR-LEWIS/FEMALE, Target Tissue: Type of Lesion: PANCREAS: CARCINOMA, Dose [Carcinogen]: 10 MG/KG BW 1/WK FOR 15 WK): 13%, 0%, 100%, not significant | tumour outcome (control, treated, inhibition, significance) (Carcinogen: L-AZASERINE, 115-02-6, Dose [Inhibitor]: 2 MMOL/KG DIET DAILY FOR 330 D STARTING 1 WK AFTER COMPLETION OF CARCINOGEN TREATMENT (STUDY DURATION: 66 WK), Strain/Sex: WISTAR-LEWIS/FEMALE, Target Tissue: Type of Lesion: PANCREAS: NEOPLASM, Dose [Carcinogen]: 10 MG/KG BW 1/WK FOR 15 WK): 71%, 50%, 30%, p 0.14 | tumour outcome (control, treated, inhibition, significance) (Carcinogen: L-AZASERINE, 115-02-6, Dose [Inhibitor]: 2 MMOL/KG DIET DAILY FOR 330 D STARTING 1 WK AFTER COMPLETION OF CARCINOGEN TREATMENT (STUDY DURATION: 66 WK), Strain/Sex: WISTAR-LEWIS/MALE, Target Tissue: Type of Lesion: PANCREAS: ADENOMA, Dose [Carcinogen]: 10 MG/KG BW 1/WK FOR 15 WK): 25%, 40%, -60%, not significant | tumour outcome (control, treated, inhibition, significance) (Carcinogen: L-AZASERINE, 115-02-6, Dose [Inhibitor]: 2 MMOL/KG DIET DAILY FOR 330 D STARTING 1 WK AFTER COMPLETION OF CARCINOGEN TREATMENT (STUDY DURATION: 66 WK), Strain/Sex: WISTAR-LEWIS/MALE, Target Tissue: Type of Lesion: PANCREAS: CARCINOMA IN SITU, Dose [Carcinogen]: 10 MG/KG BW 1/WK FOR 15 WK): 29%, 44%, -52%, not significant | tumour outcome (control, treated, inhibition, significance) (Carcinogen: L-AZASERINE, 115-02-6, Dose [Inhibitor]: 2 MMOL/KG DIET DAILY FOR 330 D STARTING 1 WK AFTER COMPLETION OF CARCINOGEN TREATMENT (STUDY DURATION: 66 WK), Strain/Sex: WISTAR-LEWIS/MALE, Target Tissue: Type of Lesion: PANCREAS: CARCINOMA, Dose [Carcinogen]: 10 MG/KG BW 1/WK FOR 15 WK): 46%, 0%, 100%, p<0.05 | tumour outcome (control, treated, inhibition, significance) (Carcinogen: L-AZASERINE, 115-02-6, Dose [Inhibitor]: 2 MMOL/KG DIET DAILY FOR 330 D STARTING 1 WK AFTER COMPLETION OF CARCINOGEN TREATMENT (STUDY DURATION: 66 WK), Strain/Sex: WISTAR-LEWIS/MALE, Target Tissue: Type of Lesion: PANCREAS: NEOPLASM, Dose [Carcinogen]: 10 MG/KG BW 1/WK FOR 15 WK): 100%, 84%, 16%, not significant | tumour outcome (control, treated, inhibition, significance) (Carcinogen: N-METHYL-N-NITROSOUREA, 684-93-5, Dose [Inhibitor]: 406 MG/KG DIET DAILY FOR 24 WK STARTING 5 D AFTER LAST CARCINOGEN DOSE (STUDY DURATION: 32 WK), Strain/Sex: F344/MALE, Target Tissue: Type of Lesion: COLON: SARCOMA, Dose [Carcinogen]: 0.5 MG 2/WK FOR 8 WK): 5/40 (13%), 3/40 (8%), 38%, not calculated | tumour outcome (control, treated, inhibition, significance) (Carcinogen: N-METHYL-N-NITROSOUREA, 684-93-5, Dose [Inhibitor]: 406 MG/KG DIET DAILY FOR 24 WK STARTING 5 D AFTER LAST CARCINOGEN DOSE (STUDY DURATION: 32 WK), Strain/Sex: F344/MALE, Target Tissue: Type of Lesion: COLON: TUMOR, Dose [Carcinogen]: 0.5 MG 2/WK FOR 8 WK): 60%, 75%, -25%, not significant | tumour outcome (control, treated, inhibition, significance) (Carcinogen: N-METHYL-N-NITROSOUREA, 684-93-5, Dose [Inhibitor]: 406 MG/KG DIET DAILY FOR 38 WK STARTING 5 D AFTER LAST CARCINOGEN DOSE (STUDY DURATION: 44 WK), Strain/Sex: F344/MALE, Target Tissue: Type of Lesion: COLON: TUMOR, Dose [Carcinogen]: 0.5 MG 2/WK FOR 6 WK): 62%, 49%, 21%, not significant | tumour outcome (control, treated, inhibition, significance) (Carcinogen: N-METHYL-N-NITROSOUREA, 684-93-5, Dose [Inhibitor]: 406 MG/KG DIET DAILY FOR 48 WK STARTING 5 D AFTER LAST CARCINOGEN DOSE (STUDY DURATION: 52 WK), Strain/Sex: F344/MALE, Target Tissue: Type of Lesion: COLON: TUMOR, Dose [Carcinogen]: 0.5 MG 2/WK FOR 4 WK): 31%, 35%, -13%, not significant
